In patent US20230085307A1, “PYRIDAZINONE COMPOUND AND HERBICIDE” (NISSAN CHEMICAL CORPORATION, priority 2019, published 2023):

Tests used:
barnyard grass [1] = test: Test Example 3: herbicidal effect by foliage application, Wagner pot (Table 18, symbol H); format: in vivo, barnyard grass (Echinochloa crus-galli); conditions: amount of applied herbicide 320 g/ha
Summary of the method: (§1)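 Plants were sown in alluvial soil held under 0.1–0.5 cm standing water and grown 14 days in a greenhouse at 25–30 °C. An emulsifiable formulation, water-diluted to the set dose, was then sprayed onto the foliage, and effects were scored three weeks later using previously defined criteria.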

Chinese sprangletop = test: Test Example 3: herbicidal effect by foliage application, Wagner pot (Table 18, symbol D); format: in vivo, chinese sprangletop (Leptochloa chinensis); conditions: amount of applied herbicide 320 g/ha
Summary of the method: as §1

rice flat sedge = test: Test Example 3: herbicidal effect by foliage application, Wagner pot (Table 18, symbol E); format: in vivo, rice flat sedge (Cyperus iria); conditions: amount of applied herbicide 320 g/ha
Summary of the method: as §1

southern crabgrass [2] = test: Test Example 4: herbicidal effect by soil treatment (Table 19, symbol F); format: in vivo, southern crabgrass (Digitaria ciliaris); conditions: amount of applied herbicide 320 g/ha
Summary of the method: (§2)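 Emulsion of test compound, water-diluted to predetermined amount, sprayed on soil after sowing (seed depth ~1.5 cm, sterilized diluvial soil). Greenhouse, 25–30° C. Effect graded at three weeks post-spray.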

green foxtail [3] = test: Test Example 4: herbicidal effect by soil treatment (Table 19, symbol G); format: in vivo, green foxtail (Setaria viridis); conditions: amount of applied herbicide 320 g/ha
Summary of the method: as §2

barnyard grass [4] = test: Test Example 4: herbicidal effect by soil treatment (Table 19, symbol H); format: in vivo, barnyard grass (Echinochloa crus-galli); conditions: amount of applied herbicide 320 g/ha
Summary of the method: as §2

wild oat [5] = test: Test Example 4: herbicidal effect by soil treatment (Table 19, symbol I); format: in vivo, wild oat (Avena fatua); conditions: amount of applied herbicide 320 g/ha
Summary of the method: as §2

blackgrass [6] = test: Test Example 4: herbicidal effect by soil treatment (Table 19, symbol J); format: in vivo, blackgrass (Alopecurus myosuroides); conditions: amount of applied herbicide 320 g/ha
Summary of the method: as §2

Italian ryegrass [7] = test: Test Example 4: herbicidal effect by soil treatment (Table 19, symbol K); format: in vivo, Italian ryegrass (Lolium multiflorum); conditions: amount of applied herbicide 320 g/ha
Summary of the method: as §2

windgrass [8] = test: Test Example 4: herbicidal effect by soil treatment (Table 19, symbol L); format: in vivo, windgrass (Apera spica-venti); conditions: amount of applied herbicide 320 g/ha
Summary of the method: as §2

velvetleaf [9] = test: Test Example 4: herbicidal effect by soil treatment (Table 19, symbol M); format: in vivo, velvetleaf (Abutilon theophrasti); conditions: amount of applied herbicide 320 g/ha
Summary of the method: as §2

redroot pigweed [10] = test: Test Example 4: herbicidal effect by soil treatment (Table 19, symbol N); format: in vivo, redroot pigweed (Amaranthus retroflexus); conditions: amount of applied herbicide 320 g/ha
Summary of the method: as §2

lambsquarters [11] = test: Test Example 4: herbicidal effect by soil treatment (Table 19, symbol O); format: in vivo, lambsquarters (Chenopodium album); conditions: amount of applied herbicide 320 g/ha
Summary of the method: as §2

chickweed [12] = test: Test Example 4: herbicidal effect by soil treatment (Table 19, symbol P); format: in vivo, common chickweed (Stellaria media); conditions: amount of applied herbicide 320 g/ha
Summary of the method: as §2

persian speedwell [13] = test: Test Example 4: herbicidal effect by soil treatment (Table 19, symbol R); format: in vivo, Persian speedwell (Veronica persica); conditions: amount of applied herbicide 320 g/ha
Summary of the method: as §2

southern crabgrass [14] = test: Test Example 5: herbicidal effect by foliage application, plastic box (Table 20, symbol F); format: in vivo, southern crabgrass (Digitaria ciliaris); conditions: foliage application, 320 g/ha, evaluated three weeks after application
Summary of the method: (§3)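 Post-emergence foliar test in sterilized diluvial soil. Compound applied as water-diluted emulsion at a predetermined rate to 14-day-old plants; evaluation at three weeks.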

green foxtail [15] = test: Test Example 5: herbicidal effect by foliage application, plastic box (Table 20, symbol G); format: in vivo, green foxtail (Setaria viridis); conditions: foliage application, 320 g/ha, evaluated three weeks after application
Summary of the method: as §3

barnyard grass [16] = test: Test Example 5: herbicidal effect by foliage application, plastic box (Table 20, symbol H); format: in vivo, barnyard grass (Echinochloa crus-galli); conditions: foliage application, 320 g/ha, evaluated three weeks after application
Summary of the method: as §3

wild oat [17] = test: Test Example 5: herbicidal effect by foliage application, plastic box (Table 20, symbol I); format: in vivo, wild oat (Avena fatua); conditions: foliage application, 320 g/ha, evaluated three weeks after application
Summary of the method: as §3

blackgrass [18] = test: Test Example 5: herbicidal effect by foliage application, plastic box (Table 20, symbol J); format: in vivo, blackgrass (Alopecurus myosuroides); conditions: foliage application, 320 g/ha, evaluated three weeks after application
Summary of the method: as §3

Italian ryegrass [19] = test: Test Example 5: herbicidal effect by foliage application, plastic box (Table 20, symbol K); format: in vivo, Italian ryegrass (Lolium multiflorum); conditions: foliage application, 320 g/ha, evaluated three weeks after application
Summary of the method: as §3

windgrass [20] = test: Test Example 5: herbicidal effect by foliage application, plastic box (Table 20, symbol L); format: in vivo, windgrass (Apera spica-venti); conditions: foliage application, 320 g/ha, evaluated three weeks after application
Summary of the method: as §3

velvetleaf [21] = test: Test Example 5: herbicidal effect by foliage application, plastic box (Table 20, symbol M); format: in vivo, velvetleaf (Abutilon theophrasti); conditions: foliage application, 320 g/ha, evaluated three weeks after application
Summary of the method: as §3

redroot pigweed [22] = test: Test Example 5: herbicidal effect by foliage application, plastic box (Table 20, symbol N); format: in vivo, redroot pigweed (Amaranthus retroflexus); conditions: foliage application, 320 g/ha, evaluated three weeks after application
Summary of the method: as §3

lambsquarters [23] = test: Test Example 5: herbicidal effect by foliage application, plastic box (Table 20, symbol O); format: in vivo, lambsquarters (Chenopodium album); conditions: foliage application, 320 g/ha, evaluated three weeks after application
Summary of the method: as §3

chickweed [24] = test: Test Example 5: herbicidal effect by foliage application, plastic box (Table 20, symbol P); format: in vivo, common chickweed (Stellaria media); conditions: foliage application, 320 g/ha, evaluated three weeks after application
Summary of the method: as §3

persian speedwell [25] = test: Test Example 5: herbicidal effect by foliage application, plastic box (Table 20, symbol R); format: in vivo, Persian speedwell (Veronica persica); conditions: foliage application, 320 g/ha, evaluated three weeks after application
Summary of the method: as §3

## CCCCOc1cccc(-c2sc3ccc(F)cc3c2-c2c(OC(=O)CCC)c(C)nn(C)c2=O)c1 [2-220]
Barnyard grass [1]
  herbicidal effect on H: barnyard grass: 5 (Herbicidal rate of 90% or more (almost completely withered))
Chinese sprangletop
  herbicidal effect on D: Chinese sprangletop: 3 (Herbicidal rate of 40% or more and less than 70%)
Rice flat sedge
  herbicidal effect on E: rice flat sedge: 3 (Herbicidal rate of 40% or more and less than 70%)
Southern crabgrass [2]
  F: southern crabgrass, herbicidal effect rating: 0 (Herbicidal rate of 5% or less (almost no effect))
Green foxtail [3]
  G: green foxtail, herbicidal effect rating: 0 (Herbicidal rate of 5% or less (almost no effect))
Barnyard grass [4]
  H: barnyard grass, herbicidal effect rating: 1 (Herbicidal rate of 5% or more and less than 20%)
Wild oat [5]
  I: wild oat, herbicidal effect rating: 0 (Herbicidal rate of 5% or less (almost no effect))
Blackgrass [6]
  J: blackgrass, herbicidal effect rating: 0 (Herbicidal rate of 5% or less (almost no effect))
Italian ryegrass [7]
  K: Italian ryegrass, herbicidal effect rating: 0 (Herbicidal rate of 5% or less (almost no effect))
Windgrass [8]
  L: windgrass, herbicidal effect rating: 0 (Herbicidal rate of 5% or less (almost no effect))
Velvetleaf [9]
  M: velvetleaf, herbicidal effect rating: 0 (Herbicidal rate of 5% or less (almost no effect))
Redroot pigweed [10]
  N: redroot pigweed, herbicidal effect rating: 4 (Herbicidal rate of 70% or more and less than 90%)
Lambsquarters [11]
  O: lambsquarters, herbicidal effect rating: 0 (Herbicidal rate of 5% or less (almost no effect))
Chickweed [12]
  P: chickweed, herbicidal effect rating: 0 (Herbicidal rate of 5% or less (almost no effect))
Persian speedwell [13]
  R: persian speedwell, herbicidal effect rating: 0 (Herbicidal rate of 5% or less (almost no effect))
Southern crabgrass [14]
  herbicidal effect on F: southern crabgrass (criteria 0-5): 3 (Herbicidal rate of 40% or more and less than 70%)
Green foxtail [15]
  herbicidal effect on G: green foxtail (criteria 0-5): 3 (Herbicidal rate of 40% or more and less than 70%)
Barnyard grass [16]
  herbicidal effect on H: barnyard grass (criteria 0-5): 3 (Herbicidal rate of 40% or more and less than 70%)
Wild oat [17]
  herbicidal effect on I: wild oat (criteria 0-5): 0 (Herbicidal rate of 5% or less (almost no effect))
Blackgrass [18]
  herbicidal effect on J: blackgrass (criteria 0-5): 0 (Herbicidal rate of 5% or less (almost no effect))
Italian ryegrass [19]
  herbicidal effect on K: Italian ryegrass (criteria 0-5): 0 (Herbicidal rate of 5% or less (almost no effect))
Windgrass [20]
  herbicidal effect on L: windgrass (criteria 0-5): 0 (Herbicidal rate of 5% or less (almost no effect))
Velvetleaf [21]
  herbicidal effect on M: velvetleaf (criteria 0-5): 1 (Herbicidal rate of 5% or more and less than 20%)
Redroot pigweed [22]
  herbicidal effect on N: redroot pigweed (criteria 0-5): 3 (Herbicidal rate of 40% or more and less than 70%)
Lambsquarters [23]
  herbicidal effect on O: lambsquarters (criteria 0-5): 3 (Herbicidal rate of 40% or more and less than 70%)
Chickweed [24]
  herbicidal effect on P: chickweed (criteria 0-5): 4 (Herbicidal rate of 70% or more and less than 90%)
Persian speedwell [25]
  herbicidal effect on R: persian speedwell (criteria 0-5): 4 (Herbicidal rate of 70% or more and less than 90%)

## Cc1nn(C)c(=O)c(-c2c(-c3cccc(C(F)(F)F)c3)sc3ccc(F)cc23)c1O [2-231]
Barnyard grass [1]
  herbicidal effect on H: barnyard grass: 4 (Herbicidal rate of 70% or more and less than 90%)
Chinese sprangletop
  herbicidal effect on D: Chinese sprangletop: 3 (Herbicidal rate of 40% or more and less than 70%)
Rice flat sedge
  herbicidal effect on E: rice flat sedge: 5 (Herbicidal rate of 90% or more (almost completely withered))
Southern crabgrass [2]
  herbicidal effect on F: southern crabgrass: 0 (Herbicidal rate of 5% or less (almost no effect))
Green foxtail [3]
  herbicidal effect on G: green foxtail: 0 (Herbicidal rate of 5% or less (almost no effect))
Barnyard grass [4]
  herbicidal effect on H: barnyard grass: 0 (Herbicidal rate of 5% or less (almost no effect))
Wild oat [5]
  herbicidal effect on I: wild oat: 0 (Herbicidal rate of 5% or less (almost no effect))
Blackgrass [6]
  herbicidal effect on J: blackgrass: 0 (Herbicidal rate of 5% or less (almost no effect))
Italian ryegrass [7]
  herbicidal effect on K: Italian ryegrass: 0 (Herbicidal rate of 5% or less (almost no effect))
Windgrass [8]
  herbicidal effect on L: windgrass: 0 (Herbicidal rate of 5% or less (almost no effect))
Velvetleaf [9]
  herbicidal effect on M: velvetleaf: 0 (Herbicidal rate of 5% or less (almost no effect))
Redroot pigweed [10]
  herbicidal effect on N: redroot pigweed: 0 (Herbicidal rate of 5% or less (almost no effect))
Lambsquarters [11]
  herbicidal effect on O: lambsquarters: 1 (Herbicidal rate of 5% or more and less than 20%)
Chickweed [12]
  herbicidal effect on P: chickweed: 3 (Herbicidal rate of 40% or more and less than 70%)
Persian speedwell [13]
  herbicidal effect on R: persian speedwell: 0 (Herbicidal rate of 5% or less (almost no effect))
Southern crabgrass [14]
  herbicidal effect on F: southern crabgrass (criteria 0-5): 0 (Herbicidal rate of 5% or less (almost no effect))
Green foxtail [15]
  herbicidal effect on G: green foxtail (criteria 0-5): 3 (Herbicidal rate of 40% or more and less than 70%)
Barnyard grass [16]
  herbicidal effect on H: barnyard grass (criteria 0-5): 2 (Herbicidal rate of 20% or more and less than 40%)
Wild oat [17]
  herbicidal effect on I: wild oat (criteria 0-5): 0 (Herbicidal rate of 5% or less (almost no effect))
Blackgrass [18]
  herbicidal effect on J: blackgrass (criteria 0-5): 0 (Herbicidal rate of 5% or less (almost no effect))
Italian ryegrass [19]
  herbicidal effect on K: Italian ryegrass (criteria 0-5): 0 (Herbicidal rate of 5% or less (almost no effect))
Windgrass [20]
  herbicidal effect on L: windgrass (criteria 0-5): 4 (Herbicidal rate of 70% or more and less than 90%)
Velvetleaf [21]
  herbicidal effect on M: velvetleaf (criteria 0-5): 4 (Herbicidal rate of 70% or more and less than 90%)
Redroot pigweed [22]
  herbicidal effect on N: redroot pigweed (criteria 0-5): 3 (Herbicidal rate of 40% or more and less than 70%)
Lambsquarters [23]
  herbicidal effect on O: lambsquarters (criteria 0-5): 3 (Herbicidal rate of 40% or more and less than 70%)
Chickweed [24]
  herbicidal effect on P: chickweed (criteria 0-5): 5 (Herbicidal rate of 90% or more (almost completely withered))
Persian speedwell [25]
  herbicidal effect on R: persian speedwell (criteria 0-5): 4 (Herbicidal rate of 70% or more and less than 90%)
